Measured values from patent US11766426B2, “Semi-solid topical composition containing pirfenidone and modified diallyl disulfide oxide (M-DDO) for eliminating or preventing acne” (Excalibur Pharmaceuticals, Inc., priority 2012, dated 2023).

How the values were obtained:
Format in all cases: cell-based
Salmonella enteritidis = test: Challenge with microorganisms collected from hospitalized patients, Universidad Autónoma del Estado de Morelos; details: contact time 30 seconds; isolate from hospitalized patients; UAEM
Experimental: (§1) Tables 1, 2, 3 and 4 (shown hereinafter) present the information obtained after conducting microbiological tests, also known as antimicrobial challenge, of M-DDO against various bacteria, showing its powerful anti-bacterial capacity. Moreover, Table 5 (shown hereinafter) presents the results of M-DDO against Propionibacterium acnes.
(§2) A second type of challenges were performed at the Universidad Autónoma del Estado de Morelos with microorganisms collected from hospitalized patients and thus said microorganisms had already been in contact with antimicrobial agents and could show resistance (Table 4).

Enterobacter cloacae = test: as above; details: contact time 30 seconds; isolate from hospitalized patients; UAEM
Experimental: as §1, §2

Serratia marcenses = test: as above; details: contact time 30 seconds; isolate from hospitalized patients; UAEM
Experimental: as §1, §2

Enterobacter faecalis = test: as above; details: contact time 30 seconds; isolate from hospitalized patients; UAEM
Experimental: as §1, §2

Escherichia coli = test: as above; details: contact time 30 seconds; isolate from hospitalized patients; UAEM
Experimental: as §1, §2

Salmonella typhi = test: as above; details: contact time 30 seconds; isolate from hospitalized patients; UAEM
Experimental: as §1, §2

Staphylococcus aureus = test: as above; details: contact time 30 seconds; isolate from hospitalized patients; UAEM
Experimental: as §1, §2

[1] = tested on: Candida albicans ATCC 10231; test: Microbial challenge, Grupo Medifarma; details: contact time 30 seconds
Description: as §1
(§3) Various antimicrobial challenges have been studied in various institutions in order to evaluate the efficacy of M-DDO [Pirfenidone and M-DDO] against the most frequent microorganisms susceptible to develop resistance and against some microorganisms that may cause grater problem with regard to their eradication because of spore production.
(§4) The initial challenges are conducted with collection microorganisms universally requested for evidencing the efficacy of a product. […] Moreover, results of studies conducted by a company authorized by the authorities to perform challenge studies show results that are similar to the results obtained in the test conducted at UNAM, UAEM and in our laboratory (Grupo Medifarma)(Tables 1, 2 and 3).

[2] = tested on: Staphylococcus aureus ATCC 6538; test: Microbial challenge, Grupo Medifarma; details: contact time 30 seconds
Description: as §1, §3, §4

[3] = tested on: Staphylococcus epidermidis ATCC 12228; test: Microbial challenge, Grupo Medifarma; details: contact time 30 seconds
Description: as §1, §3, §4

[4] = tested on: Escherichia coli ATCC 10536; test: Microbial challenge, Grupo Medifarma; details: contact time 30 seconds
Description: as §1, §3, §4

[5] = tested on: Klebsiella pneumoniae ATCC 10031; test: Microbial challenge, Grupo Medifarma; details: contact time 30 seconds
Description: as §1, §3, §4

[6] = tested on: Escherichia coli ATCC 11229; test: Microbial challenge, Grupo Medifarma; details: contact time 30 seconds
Description: as §1, §3, §4

[7] = tested on: Proteus vulgaris ATCC 6380; test: Microbial challenge, Grupo Medifarma; details: contact time 30 seconds
Description: as §1, §3, §4

[8] = tested on: Pseudomonas aeruginosa ATCC 9027; test: Microbial challenge, Grupo Medifarma; details: contact time 30 seconds
Description: as §1, §3, §4

Salmonella typhi CA-C001 = test: Microbial challenge, UNAM; details: contact time 30 seconds
Description: as §1, §3, §4

Propionibacterium acnes = test: Antimicrobial action of Pirfenidone and M-DDO gel
Description: as §1

[9] = tested on: microorganisms isolated from hospitalized patients; test: Challenges with microorganisms isolated from hospitalized patients, summary; details: 30 second contact
Experimental: as §2

[10] = tested on: Candida albicans ATCC 10231; test: Microbial challenge, ARj.; details: contact time 30 seconds
Description: as §1, §3, §4

[11] = tested on: Klebsiella pneumoniae ATCC 10031; test: Microbial challenge, ARj.; details: contact time 30 seconds
Description: as §1, §3, §4

[12] = tested on: collection microorganisms; test: Microbial challenge studies at the Universidad Nacional Autónoma de México, summary
Experimental: as §3, §4

Question: How did the “reduction of the microbial charge” value (Salmonella enteritidis) turn out when “[1,2-diallyl-1-(5-methyl-tetrahydro-2H-pyran-2-yloxy)disulfonium]+6-[(benzyl, methyl, octylammonium) (hydroxymethylamin)(methylamin)]-tetrahydro-2H-pyran-3-oxy] chloride [M-DDO]” was run?
Answer: Its value is 100%.

Question: And the “reduction of the microbial charge” value (Enterobacter cloacae)?
Answer: The value was 100%.

Question: What about the “reduction of the microbial charge” value (Serratia marcenses) of the same substance?
Answer: Its value is 100%.

Question: And the “reduction of the microbial charge” value (Enterobacter faecalis)?
Answer: The value was 99.972%.

Question: What about the “reduction of the microbial charge” value (Escherichia coli) of the same substance?
Answer: Its value is 99.961%.

Question: And the “reduction of the microbial charge” value (Salmonella typhi)?
Answer: Its value is 99.170%.

Question: And the “reduction of the microbial charge” value (Staphylococcus aureus)?
Answer: The value was 99.999%.

Question: And the elimination of microorganisms [1]?
Answer: The elimination of microorganisms was 100%.

Question: What about the elimination of microorganisms [2] of the same substance?
Answer: Its elimination of microorganisms is 100%.

Question: And the elimination of microorganisms [3]?
Answer: The elimination of microorganisms was 100%.

Question: And the elimination of microorganisms [4]?
Answer: The elimination of microorganisms was 100%.

Question: What about the elimination of microorganisms [5] of the same substance?
Answer: The elimination of microorganisms was 100%.

Question: And the elimination of microorganisms [6]?
Answer: The elimination of microorganisms was 100%.

Question: And the elimination of microorganisms [7]?
Answer: Its elimination of microorganisms is 100%.

Question: And the elimination of microorganisms [8]?
Answer: The elimination of microorganisms was 100%.

Question: And the “elimination of the microbial charge” value (Salmonella typhi CA-C001)?
Answer: The value was 99.999%.

Question: And the “Percentage of reduction of bacteria viability (%)” value (from here on “Percentage of reduction … (%)”) (Propionibacterium acnes; exposition time 30 sec)?
Answer: The value was 99.999%.

Question: And the “Percentage of reduction … (%)” value (Propionibacterium acnes; exposition time 60 sec)?
Answer: The value was 99.999%.

Question: What about the “Percentage of reduction … (%)” value (Propionibacterium acnes; exposition time 15 min) of the same substance?
Answer: The value was 100%.

Question: And the “reduction of the microbial charge” value [9]?
Answer: Its value is “at least 99.17%”.

Question: And the “elimination of the microbial charge” value [10]?
Answer: Its value is 100%.

Question: What about the “elimination of the microbial charge” value [11] of the same substance?
Answer: Its value is 100%.

Question: What about the “elimination of the microbial charge” value [12] of the same substance?
Answer: Its value is 99.999%.
